Measured values reported in article PMC12090182, “Repurposing of the RIPK1-Selective Benzo[1,4]oxazepin-4-one Scaffold for the Development of a Type III LIMK1/2 Inhibitor” (ACS Chemical Biology, 2025).

Assays:
Type in all cases: cell-based
Conditions in all cases: HEK-293T; 1 μM inhibitor, HEK293T cells
BRSK2 = BRSK2 (Homo sapiens, UniProt Q8IWQ3)
Procedure: (§1) For plate preparation, a transfection mix was prepared in white 384-well small-volume plates (Greiner, cat. no. 784075) by preplating 3 μL of 20 μL/mL FuGene HD (Promega, cat. no. E2311), diluted in an Opti-MEM medium (Gibco, cat. no. 11058-021). One μL of DNA from both DNA vector source plates of the K192 kit was added using an Echo 550 acoustic dispenser (Beckman Coulter). The mix was incubated for 30 min, and 6 μL of HEK293T cells in an Opti-MEM medium was added. The proteins were allowed to express for 20 h. After expression, Tracer K10 was added using the concentrations recommended in the K192 technical manual and a 1 μM inhibitor was added to every second well. […] Five μL of substrate solution was added to every well, and filtered luminescence was measured on a PHERAstar plate reader (BMG Labtech) equipped with a luminescence filter pair (450 nm BP filter (donor) and a 610 nm LP filter (acceptor)). For every kinase, occupancy was calculated and plotted using GraphPad Prism 10 (Table S5).

RET = RET (Homo sapiens, UniProt P07949)
Procedure: as §1

CSNK1D = CSNK1D (Homo sapiens, UniProt P48730)
Procedure: as §1

MAP3K21 = MAP3K21 (Homo sapiens, UniProt Q5TCX8)
Procedure: as §1

HIPK4 = HIPK4 (Homo sapiens, UniProt Q8NE63)
Procedure: as §1

CHEK2 = CHEK2 (Homo sapiens, UniProt O96017)
Procedure: as §1

LCK = LCK (Homo sapiens, UniProt P06239)
Procedure: as §1

PTK6 = PTK6 (Homo sapiens, UniProt Q13882)
Procedure: as §1

EPHB1 = EPHB1 (Homo sapiens, UniProt P54762)
Procedure: as §1

MERTK = MERTK (Homo sapiens, UniProt Q12866)
Procedure: as §1

ITK = ITK (Homo sapiens, UniProt Q08881)
Procedure: as §1

MAPK14 = MAPK14 (Homo sapiens, UniProt Q16539)
Procedure: as §1

CDKL1 = CDKL1 (Homo sapiens, UniProt Q00532)
Procedure: as §1

JNK3 = JNK3 (Homo sapiens, UniProt P53779)
Procedure: as §1

TNK2(iso1) = TNK2(iso1) (Homo sapiens, UniProt Q07912)
Procedure: as §1

RIPK2 = RIPK2 (Homo sapiens, UniProt O43353)
Procedure: as §1

AAK1 = AAK1 (Homo sapiens, UniProt Q2M2I8)
Procedure: as §1

BMX = BMX (Homo sapiens, UniProt P51813)
Procedure: as §1

NEK5 = NEK5 (Homo sapiens, UniProt Q6P3R8)
Procedure: as §1

ULK1 = ULK1 (Homo sapiens, UniProt O75385)
Procedure: as §1

CSNK2A2 = CSNK2A2 (Homo sapiens, UniProt P19784)
Procedure: as §1

RIPK1 = target: T1, RIPK1 (Homo sapiens, UniProt Q13546)
T1 construct: full-length LIMK1/2, RIPK1, BTK, and LRRK2 cloned in a frame in a NanoLuc-vector (Promega); host or cells: HEK293T
T1 sequence (Q13546 1-671): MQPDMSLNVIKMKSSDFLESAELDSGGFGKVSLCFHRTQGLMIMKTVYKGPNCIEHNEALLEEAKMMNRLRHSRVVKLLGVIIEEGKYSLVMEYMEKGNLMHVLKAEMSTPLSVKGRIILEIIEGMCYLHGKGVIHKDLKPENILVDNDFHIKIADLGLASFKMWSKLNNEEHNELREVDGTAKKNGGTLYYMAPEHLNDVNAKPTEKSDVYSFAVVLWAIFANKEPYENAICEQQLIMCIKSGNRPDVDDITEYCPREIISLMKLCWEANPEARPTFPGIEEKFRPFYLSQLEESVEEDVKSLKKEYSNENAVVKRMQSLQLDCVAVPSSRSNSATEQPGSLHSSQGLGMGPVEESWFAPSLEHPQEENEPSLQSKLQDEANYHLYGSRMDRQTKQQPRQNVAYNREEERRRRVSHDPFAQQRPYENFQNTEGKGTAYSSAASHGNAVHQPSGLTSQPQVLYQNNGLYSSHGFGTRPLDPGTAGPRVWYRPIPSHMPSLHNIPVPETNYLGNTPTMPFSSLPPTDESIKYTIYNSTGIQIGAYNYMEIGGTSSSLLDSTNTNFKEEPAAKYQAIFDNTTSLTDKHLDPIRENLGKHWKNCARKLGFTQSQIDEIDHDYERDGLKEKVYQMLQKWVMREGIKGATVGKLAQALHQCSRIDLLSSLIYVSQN
Procedure: as §1

MARK4 = MARK4 (Homo sapiens, UniProt Q96L34)
Procedure: as §1

STK3 = STK3 (Homo sapiens, UniProt Q13188)
Procedure: as §1

FGFR4 = FGFR4 (Homo sapiens, UniProt P22455)
Procedure: as §1

FGFR3 = FGFR3 (Homo sapiens, UniProt P22607)
Procedure: as §1

WEE2 = WEE2 (Homo sapiens, UniProt P0C1S8)
Procedure: as §1

Sequence of MERTK (Q12866 21-999): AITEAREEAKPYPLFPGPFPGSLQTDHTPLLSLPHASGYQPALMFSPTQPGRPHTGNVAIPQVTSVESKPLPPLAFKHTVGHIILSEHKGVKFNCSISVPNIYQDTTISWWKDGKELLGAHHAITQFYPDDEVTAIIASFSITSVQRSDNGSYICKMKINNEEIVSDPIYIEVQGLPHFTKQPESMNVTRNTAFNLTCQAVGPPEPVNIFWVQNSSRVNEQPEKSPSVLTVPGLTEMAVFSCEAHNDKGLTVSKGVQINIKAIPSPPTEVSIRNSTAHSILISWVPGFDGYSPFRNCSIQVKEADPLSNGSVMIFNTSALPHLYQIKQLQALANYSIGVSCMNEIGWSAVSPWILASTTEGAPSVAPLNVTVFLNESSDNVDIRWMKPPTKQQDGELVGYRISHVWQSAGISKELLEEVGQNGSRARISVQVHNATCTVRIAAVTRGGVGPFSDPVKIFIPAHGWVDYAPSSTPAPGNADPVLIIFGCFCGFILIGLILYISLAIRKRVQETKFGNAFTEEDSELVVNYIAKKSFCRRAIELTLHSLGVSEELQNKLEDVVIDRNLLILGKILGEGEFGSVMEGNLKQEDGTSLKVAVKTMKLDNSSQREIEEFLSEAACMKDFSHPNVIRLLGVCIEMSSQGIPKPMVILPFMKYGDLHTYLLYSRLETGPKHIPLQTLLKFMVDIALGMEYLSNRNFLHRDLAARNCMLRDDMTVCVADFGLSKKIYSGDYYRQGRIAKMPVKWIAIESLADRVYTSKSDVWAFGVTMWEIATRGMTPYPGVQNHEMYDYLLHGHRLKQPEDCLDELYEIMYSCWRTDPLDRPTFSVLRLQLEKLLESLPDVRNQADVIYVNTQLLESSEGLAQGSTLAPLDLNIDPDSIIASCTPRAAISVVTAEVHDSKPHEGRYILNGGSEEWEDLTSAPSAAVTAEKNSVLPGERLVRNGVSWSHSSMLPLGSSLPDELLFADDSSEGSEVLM
Sequence of JNK3 (P53779 whole entry): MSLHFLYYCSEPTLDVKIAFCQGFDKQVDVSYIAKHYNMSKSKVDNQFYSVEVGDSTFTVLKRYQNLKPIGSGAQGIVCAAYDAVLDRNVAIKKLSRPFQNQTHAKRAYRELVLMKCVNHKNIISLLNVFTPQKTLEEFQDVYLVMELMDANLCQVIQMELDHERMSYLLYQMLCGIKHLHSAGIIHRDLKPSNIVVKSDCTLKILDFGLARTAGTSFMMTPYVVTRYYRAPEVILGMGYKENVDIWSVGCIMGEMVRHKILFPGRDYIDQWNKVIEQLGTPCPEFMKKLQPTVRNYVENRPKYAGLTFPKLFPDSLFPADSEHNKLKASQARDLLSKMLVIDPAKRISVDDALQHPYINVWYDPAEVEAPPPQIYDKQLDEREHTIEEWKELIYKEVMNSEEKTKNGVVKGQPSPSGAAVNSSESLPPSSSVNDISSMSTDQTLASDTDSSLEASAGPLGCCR
Sequence of CHEK2 (O96017 whole entry): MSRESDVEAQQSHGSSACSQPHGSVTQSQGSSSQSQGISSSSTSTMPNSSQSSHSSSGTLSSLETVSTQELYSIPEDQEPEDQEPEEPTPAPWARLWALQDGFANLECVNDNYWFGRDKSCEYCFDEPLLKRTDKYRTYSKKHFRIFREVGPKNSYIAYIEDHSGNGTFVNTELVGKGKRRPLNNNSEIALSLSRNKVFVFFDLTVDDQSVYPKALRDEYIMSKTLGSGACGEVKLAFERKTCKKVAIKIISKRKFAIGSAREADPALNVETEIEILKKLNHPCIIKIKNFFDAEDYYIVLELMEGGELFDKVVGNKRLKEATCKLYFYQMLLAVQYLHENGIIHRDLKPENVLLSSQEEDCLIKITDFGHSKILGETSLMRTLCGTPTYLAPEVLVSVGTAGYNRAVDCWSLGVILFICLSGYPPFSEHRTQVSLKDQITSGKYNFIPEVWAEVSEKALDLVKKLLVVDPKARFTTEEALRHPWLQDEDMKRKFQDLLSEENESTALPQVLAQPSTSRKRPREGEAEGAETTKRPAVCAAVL
Sequence of AAK1 (Q2M2I8 whole entry): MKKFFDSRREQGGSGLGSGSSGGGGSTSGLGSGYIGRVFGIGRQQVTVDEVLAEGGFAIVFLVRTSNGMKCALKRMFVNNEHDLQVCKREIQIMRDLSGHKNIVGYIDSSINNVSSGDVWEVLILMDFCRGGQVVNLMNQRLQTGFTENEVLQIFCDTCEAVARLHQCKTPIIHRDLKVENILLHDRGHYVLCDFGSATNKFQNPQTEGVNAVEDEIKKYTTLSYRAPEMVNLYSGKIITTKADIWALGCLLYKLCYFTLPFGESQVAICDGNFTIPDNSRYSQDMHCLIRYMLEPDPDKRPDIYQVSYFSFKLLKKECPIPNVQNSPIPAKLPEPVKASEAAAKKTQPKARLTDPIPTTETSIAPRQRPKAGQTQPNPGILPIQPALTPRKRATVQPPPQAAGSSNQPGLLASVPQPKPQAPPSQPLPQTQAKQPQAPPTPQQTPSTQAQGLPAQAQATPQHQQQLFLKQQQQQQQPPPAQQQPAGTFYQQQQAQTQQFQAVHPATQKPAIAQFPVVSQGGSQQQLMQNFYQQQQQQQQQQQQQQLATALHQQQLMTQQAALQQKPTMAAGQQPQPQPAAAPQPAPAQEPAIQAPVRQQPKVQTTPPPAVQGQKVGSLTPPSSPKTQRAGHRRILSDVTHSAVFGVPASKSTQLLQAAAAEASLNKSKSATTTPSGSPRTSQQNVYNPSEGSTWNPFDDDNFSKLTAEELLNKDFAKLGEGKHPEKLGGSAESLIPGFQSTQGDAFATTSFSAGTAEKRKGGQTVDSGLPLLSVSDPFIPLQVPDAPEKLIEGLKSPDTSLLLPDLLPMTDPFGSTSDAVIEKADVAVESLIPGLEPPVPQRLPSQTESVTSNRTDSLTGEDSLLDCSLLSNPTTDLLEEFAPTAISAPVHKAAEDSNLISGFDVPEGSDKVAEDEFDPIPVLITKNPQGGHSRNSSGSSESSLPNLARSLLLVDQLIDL
Sequence of FGFR4 (P22455 22-802): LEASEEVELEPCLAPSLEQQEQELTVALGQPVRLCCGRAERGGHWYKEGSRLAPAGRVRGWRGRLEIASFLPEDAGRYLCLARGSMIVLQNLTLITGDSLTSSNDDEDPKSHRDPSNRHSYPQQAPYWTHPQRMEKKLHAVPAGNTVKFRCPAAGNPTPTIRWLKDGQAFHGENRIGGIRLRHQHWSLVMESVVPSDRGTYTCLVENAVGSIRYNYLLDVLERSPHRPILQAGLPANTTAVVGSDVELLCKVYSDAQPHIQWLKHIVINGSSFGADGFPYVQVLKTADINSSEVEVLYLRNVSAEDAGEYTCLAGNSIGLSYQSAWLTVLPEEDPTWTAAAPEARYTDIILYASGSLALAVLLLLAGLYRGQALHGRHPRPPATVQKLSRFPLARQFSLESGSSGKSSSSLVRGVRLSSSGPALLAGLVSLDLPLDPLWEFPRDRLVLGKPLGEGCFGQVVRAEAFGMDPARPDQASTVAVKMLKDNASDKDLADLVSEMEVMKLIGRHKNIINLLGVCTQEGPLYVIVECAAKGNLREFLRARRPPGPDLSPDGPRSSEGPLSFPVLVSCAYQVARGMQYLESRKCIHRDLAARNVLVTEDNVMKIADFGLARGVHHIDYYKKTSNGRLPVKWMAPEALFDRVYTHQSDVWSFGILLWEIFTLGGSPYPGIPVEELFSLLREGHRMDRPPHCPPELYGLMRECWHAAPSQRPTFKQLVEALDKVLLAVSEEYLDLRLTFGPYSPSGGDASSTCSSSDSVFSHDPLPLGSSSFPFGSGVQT
Sequence of MAP3K21 (Q5TCX8 whole entry): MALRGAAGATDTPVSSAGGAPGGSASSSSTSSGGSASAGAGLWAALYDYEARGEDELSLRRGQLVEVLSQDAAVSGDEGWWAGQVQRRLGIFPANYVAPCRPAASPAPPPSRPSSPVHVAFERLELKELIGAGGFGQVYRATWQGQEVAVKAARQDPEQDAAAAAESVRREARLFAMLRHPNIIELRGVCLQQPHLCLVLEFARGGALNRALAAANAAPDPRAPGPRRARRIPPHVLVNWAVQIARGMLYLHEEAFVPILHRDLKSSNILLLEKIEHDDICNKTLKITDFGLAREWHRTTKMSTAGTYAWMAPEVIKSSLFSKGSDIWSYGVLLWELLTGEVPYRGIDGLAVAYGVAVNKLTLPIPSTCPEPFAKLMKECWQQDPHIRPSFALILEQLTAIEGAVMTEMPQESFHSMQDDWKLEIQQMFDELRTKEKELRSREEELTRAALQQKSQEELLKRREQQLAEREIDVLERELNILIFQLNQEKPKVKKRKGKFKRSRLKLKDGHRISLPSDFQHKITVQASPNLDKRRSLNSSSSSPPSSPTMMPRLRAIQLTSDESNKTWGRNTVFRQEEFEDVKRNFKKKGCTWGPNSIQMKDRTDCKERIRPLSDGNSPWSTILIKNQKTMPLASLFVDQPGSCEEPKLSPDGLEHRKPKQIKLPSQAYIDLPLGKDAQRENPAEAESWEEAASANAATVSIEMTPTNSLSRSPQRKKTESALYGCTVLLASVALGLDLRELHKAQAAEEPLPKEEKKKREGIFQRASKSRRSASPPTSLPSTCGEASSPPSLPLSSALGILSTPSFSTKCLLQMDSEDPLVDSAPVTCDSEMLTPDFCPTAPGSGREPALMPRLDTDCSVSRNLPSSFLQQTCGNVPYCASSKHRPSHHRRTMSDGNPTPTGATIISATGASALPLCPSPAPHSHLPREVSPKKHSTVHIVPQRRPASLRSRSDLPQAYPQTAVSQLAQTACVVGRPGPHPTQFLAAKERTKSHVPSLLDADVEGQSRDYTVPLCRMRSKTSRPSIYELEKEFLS

Structure (SMILES): CN1C(=O)[C@@H](N2CCc3c(nn(Cc4ccccc4)c3C(N)=O)C2=O)COc2cc(Cl)ccc21 [Compound 10, (S)-2-benzyl-6-(8-chloro-5-methyl-4-oxo-2,3,4,5-tetrahydrobenzo[b][1,4]oxazepin-3-yl)-7-oxo-4,5,6,7-tetrahydro-2H-pyrazolo[3,4-c]pyridine-3-carboxamide]
- receptor occupancy at 1 µM (BRSK2): 2.53%
- receptor occupancy at 1 µM (RET): -7.79%
- receptor occupancy at 1 µM (CSNK1D): 0.69%
- receptor occupancy at 1 µM (MAP3K21): -2.72%
- receptor occupancy at 1 µM (HIPK4): 1.53%
- receptor occupancy at 1 µM (CHEK2): -1.73%
- receptor occupancy at 1 µM (LCK): -0.25%
- receptor occupancy at 1 µM (PTK6): 2.55%
- receptor occupancy at 1 µM (EPHB1): 0.755%
- receptor occupancy at 1 µM (MERTK): 0.31%
- receptor occupancy at 1 µM (ITK): 2.24%
- receptor occupancy at 1 µM (MAPK14): 4.38%
- receptor occupancy at 1 µM (CDKL1): 12.6%
- receptor occupancy at 1 µM (JNK3): 3.53%
- receptor occupancy at 1 µM (TNK2(iso1)): 4.21%
- receptor occupancy at 1 µM (RIPK2): -1.2%
- receptor occupancy at 1 µM (AAK1): 0.814%
- receptor occupancy at 1 µM (BMX): -3.33%
- receptor occupancy at 1 µM (NEK5): -1.37%
- receptor occupancy at 1 µM (ULK1): 4.3%
- receptor occupancy at 1 µM (CSNK2A2): 1.08%
- receptor occupancy at 1 µM (RIPK1): 78.4%
- receptor occupancy at 1 µM (MARK4): 8.31%
- receptor occupancy at 1 µM (STK3): -10.1%
- receptor occupancy at 1 µM (FGFR4): 5%
- receptor occupancy at 1 µM (FGFR3): 22.5%
- receptor occupancy at 1 µM (WEE2): -0.12%
